According to patent US20200129504A1, “COMPOSITIONS OF PLINABULIN AND USE THEREOF” (BeyondSpring Pharmaceuticals, Inc., priority 2017, published 2020):

Legend:
[1] = molecular target: T1, PDE3 (Homo sapiens, UniProt Q14432); assay: Phosphodiesterase bioassay screening, PDE3 assay; type: biochemical; settings: Plinabulin concentration 10 μm; n 2; source human platelets; [3H]cAMP+cAMP substrate; 25° C.
T1 construct: The source for the PDE3 and PDE5 assays were human platelets; from tissue; host or cells: human platelets
T1 sequence (Q14432 whole entry): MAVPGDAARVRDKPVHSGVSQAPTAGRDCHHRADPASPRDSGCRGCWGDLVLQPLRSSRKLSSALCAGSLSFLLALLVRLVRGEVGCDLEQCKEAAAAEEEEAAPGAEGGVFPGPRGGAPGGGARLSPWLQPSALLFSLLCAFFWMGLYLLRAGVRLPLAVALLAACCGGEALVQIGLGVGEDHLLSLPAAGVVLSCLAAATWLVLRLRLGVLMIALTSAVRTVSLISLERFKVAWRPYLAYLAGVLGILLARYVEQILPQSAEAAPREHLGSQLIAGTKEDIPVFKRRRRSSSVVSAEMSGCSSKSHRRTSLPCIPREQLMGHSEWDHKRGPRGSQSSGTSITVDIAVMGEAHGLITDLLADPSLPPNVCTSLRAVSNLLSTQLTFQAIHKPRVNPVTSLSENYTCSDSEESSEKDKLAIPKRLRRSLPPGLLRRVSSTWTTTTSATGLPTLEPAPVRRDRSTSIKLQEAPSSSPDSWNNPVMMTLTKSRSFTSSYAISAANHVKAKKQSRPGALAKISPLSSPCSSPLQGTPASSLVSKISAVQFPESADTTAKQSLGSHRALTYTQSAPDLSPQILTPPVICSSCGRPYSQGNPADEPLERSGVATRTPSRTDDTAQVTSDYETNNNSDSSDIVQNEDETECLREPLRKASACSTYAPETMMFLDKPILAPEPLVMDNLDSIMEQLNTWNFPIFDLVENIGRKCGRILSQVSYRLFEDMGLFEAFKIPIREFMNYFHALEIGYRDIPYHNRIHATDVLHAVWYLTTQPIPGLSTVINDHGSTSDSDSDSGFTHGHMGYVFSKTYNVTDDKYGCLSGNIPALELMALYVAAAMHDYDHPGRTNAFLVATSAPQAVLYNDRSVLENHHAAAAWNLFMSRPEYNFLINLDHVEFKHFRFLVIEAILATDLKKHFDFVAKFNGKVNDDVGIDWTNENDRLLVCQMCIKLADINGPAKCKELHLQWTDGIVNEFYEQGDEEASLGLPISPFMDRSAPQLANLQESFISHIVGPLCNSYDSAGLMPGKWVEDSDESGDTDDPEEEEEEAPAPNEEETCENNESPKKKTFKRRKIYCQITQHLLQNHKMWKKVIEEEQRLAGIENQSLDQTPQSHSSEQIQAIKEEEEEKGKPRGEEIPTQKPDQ
Experimental: (§1) Plinabulin was tested using Phosphodiesterase assays including PDE3, PDE4, and PDE5 assays. The source for the PDE3 and PDE5 assays were human platelets and for PDE4 assay was human U937 cells. The substrate for all three assays was 1.01 µM [.H]cAMP+cAMP. For all three assays, the pre-incubation time was 15 mins, the incubation time was 20 mins, and the pre-incubation and incubation temperature was 25° C. The quantification method involves quantitation of [^3H]Adenosine, and the significant criteria was set for i 50% of max stimulation or inhibition.

[2] = tested on: PDE4; assay: Phosphodiesterase bioassay screening, PDE4 assay; type: biochemical, human
Experimental: as §1

[3] = Clinical study of docetaxel plus plinabulin versus docetaxel alone: dexamethasone-related treatment emergent adverse events; type: in vivo, patients
Experimental: Patients received either docetaxel plus plinabulin (DN) or docetaxel alone (75 mg/m^2) (D) treatment. Two dosing cohorts were investigated: • 1) 30 mg/m^2 dosing cohort: patients were randomized (1:1) to receive either docetaxel plus plinabulin at 30 mg/m^2 (DN 30 mg/m^2 arm) or docetaxel alone (D arm), • 2) 20 mg/m^2 dosing cohort: patients were randomized (2:1) to receive either docetaxel plus plinabulin at 20 mg/m^2 (DN 20 mg/m^2 arm) or docetaxel (D arm) alone.
Patients received therapy on Day 1 and Day 8 in 3-week cycles. Therapy on Day 1 consisted of 75 mg/m^2 docetaxel administered via intravenous infusion (IV) over 1 hour, followed 2 hours later (from the time the docetaxel infusion began) by placebo (Arm D) or 30 mg/m^2 or 20 mg/m^2 plinabulin (Arm DN) administered via intravenous infusion (IV) over 30 minutes. […]
Treatment Phase: Safety assessments (including a complete physical examination) were performed prior to study drug infusion. […] Additionally, the following were evaluated: CBC with differential/platelets and clinical chemistry were performed up to 72 hours prior to Day 1 of each cycle; an additional assessment occurred in Cycle 1/Day 15; Vital signs (heart rate, respiratory rate, blood pressure and temperature) were taken on the days of infusion immediately before and after each study drug infusion and at 30 and 60 minutes following last infusion on the first cycle. […]

[4] = molecular target: T2, PDE5 (Homo sapiens, UniProt O76074); assay: Phosphodiesterase bioassay screening, PDE5 assay; type: biochemical; settings: Plinabulin concentration 10 μm; n 2; source human platelets; [3H]cAMP+cAMP substrate; 25° C.
T2 construct: The source for the PDE3 and PDE5 assays were human platelets; from tissue; host or cells: human platelets
Experimental: as §1

CC(C)(C)c1[nH]cnc1/C=c1\[nH]c(=O)/c(=C/c2ccccc2)[nH]c1=O [Plinabulin, (3Z,6Z)-3-Benzylidene-6-{[5-(2-methyl-2-propanyl)-1H-imidazol-4-yl]methylene}-2,5-piperazinedione]
% of inhibition [1]: 7%
% of inhibition ([2]; Plinabulin concentration 10 μm, n 2, source human U937 cells, [3H]cAMP+cAMP substrate, 25° C.): 77%
inhibition activity against PDE4 compared with PDE3 and PDE5 ([2]; from Table 1, 10 μm): better inhibition activity against PDE4
steroid related adverse events versus patients receiving no plinabulin ([3]; 30 mg/m^2 of plinabulin, p=0.026): statistically more significant
steroid (dexamethasone)-related adverse events, effect of plinabulin dose (FIG. 1) ([3]; plinabulin 20 and 30 mg/m^2 added to docetaxel): dose-dependent increase
% of inhibition [4]: 25%
